Assay results as given in patent US5096886A, “Antibacterial polypeptides” (Kabigen AB, priority 1989, dated 1992).
No end group written: not given here.

How the values were obtained:
Assay type in all cases: cell-based
[1] = test system: Acinetobacter calcoaceticus, Ac11; assay: Antibacterial lethal concentration, thin agarose plates
Procedure: (§1) The polypetide obtained in Example 2 was tested for antibacterial activity against different bacteria, the activity being given as lethal concentrations in micro-moles per liter (μM).
(§2) The four last strains of E. coli were obtained from Olof Soderlind, SVA, Uppsala and they are clinical isolates that are pathogenic to piglets. Typing of O and K antigens are indicated after the strain number. Lethal concentration is the lowest concentration of cecropin that inhibits growth of the respective bacteria in thin agarose plates (see Hultmark, D. et al. EMCO J. 2, 571-576 (1983).

[2] = test system: Bacillus megaterium, Bm11; assay: as above
Procedure: as §1, §2

[3] = test system: Escherichia coli 853/67, 0149, K88; assay: as above; settings: clinical isolate pathogenic to piglets
Procedure: as §1, §2

[4] = test system: Escherichia coli Bd2221/75, O8, K88; assay: as above; settings: clinical isolate pathogenic to piglets
Procedure: as §1, §2

[5] = test system: Escherichia coli Bd4462/84, O101, K99; assay: as above; settings: clinical isolate pathogenic to piglets
Procedure: as §1, §2

[6] = test system: Escherichia coli Bd4468/84, O64, K99; assay: as above; settings: clinical isolate pathogenic to piglets
Procedure: as §1, §2

[7] = test system: Escherichia coli K12, D21; assay: as above; settings: lowest concentration that inhibits growth in thin agarose plates
Procedure: as §1, §2

Proteus vulgaris, Pv11 = assay: as above
Procedure: as §1, §2

[8] = test system: Pseudomonas aeruginosa, OT97; assay: as above
Procedure: as §1, §2

[9] = test system: Salmonella typhimurium, LT2; assay: as above
Procedure: as §1, §2

[10] = test system: Staphylococcus aureus, Cowan 1; assay: as above
Procedure: as §1, §2

Streptococcus pyogenes = assay: as above
Procedure: as §1, §2

bacteria = assay: Overall comparison of antibacterial activity of the two forms; settings: comparison of the C-terminal amide with the free-acid form (Example 3)
Procedure: as §1, §2

Row | Substance | Antibacterial activity as lethal concentration [1] [µM] | Antibacterial activity as lethal concentration [2] [µM] | Antibacterial activity as lethal concentration [3] [µM] | Antibacterial activity as lethal concentration [4] [µM] | Antibacterial activity as lethal concentration [5] [µM] | Antibacterial activity as lethal concentration [6] [µM] | Antibacterial activity as lethal concentration [7] [µM] | Antibacterial activity as lethal concentration (Proteus vulgaris, Pv11) [µM] | Antibacterial activity as lethal concentration [8] [µM] | Antibacterial activity as lethal concentration [9] [µM] | Antibacterial activity as lethal concentration [10] [µM] | Antibacterial activity as lethal concentration (Streptococcus pyogenes) [µM] | antibiotic quality, amidated form versus free acid (bacteria)
1 | SWLSKTAKKLENSAKKRISEGIAIAIQGGPR [P1-OH, H2 N-Ser-Trp-Leu-Ser-Lys-Thr-Ala-Lys-Lys-Leu-Glu-Asn-Ser-Ala-Lys-Lys-Arg-Ile- Ser-Glu-Gly-Ile-Ala-Ile-Ala-Ile-Gln-Gly-Gly-Pro-Arg-COOH] | 0.5 | 5.3 | 0.6 | 0.7 | 0.8 | 0.6 | 0.4 | 12 | 13 | 1.7 | > 520 | 44 | 
2 | SWLSKTAKKLENSAKKRISEGIAIAIQGGPR-NH2 [P1-NH2] | 0.2 | 1.8 | 0.9 | 0.6 | 0.7 | 0.3 | 0.3 | 5.7 | 5.9 | 0.9 | > 490 | 19 | better antibiotic
